Test results published in patent US20120208809A1, “9H-PYRROLO[2,3-B: 5,4-C'] DIPYRIDINE AZACARBOLINE DERIVATIVES, PREPARATION THEREOF, AND THERAPEUTIC USE THEREOF” (SANOFI, priority 2009, published 2012).

Legend:
EOL-1 = test: Cell viability assay (CellTiter-Blue), EOL-1; type: cell-based; details: Homo sapiens, EOL1, read-out: EC50 EOL-1 μM (eosinophilic leukaemia), EOL-1 cells, read-out: EC50 EOL-1 μM (lymphoma);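 further: EOL-1 is an acute myeloid eosinophilic leukaemia line not a lymphoma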
Excerpt: (§1) The representative compounds of the invention are also screened as regards their effects on cell proliferation and viability, using a variety of tumoral cell lines of human source, representative of different pathological indications. These cell lines include:
Models of Haematological Cancers: • TF-1 (acute myelogenic leukaemia; AML M6 at the time of diagnosis); • K G-1 (AML; erythroleukaemia evolving into AML); • KG-1a (AML; subclone derived from immature KG-1); • EOL-1 (AML: eosinophilic leukaemia); • PL-21 (AML; M3); • ML-2 (AML; T-NHL evolving into T-ALL evolving into AML M4); • HL-60 (AML, M3); • Kasumi-1 (AML); • GDM-1 (AML); • K-562 (CML—chronic myelogenic leukaemia; blastic crisis); • JURL-MK1 (CML; blastic crisis); • DND-41 (T-ALL—T-cell acute lymphoblastic leukaemia); • Jurkat (T-ALL); NALM-6 (B-ALL B-cell ALL); • CEM (ALL; lymphosarcoma evolving into ALL); • Jeko-1 (B-NHL—B-cell non-Hodgkin lymphoma; lymphoma with coat cells derived from a large-cell variant in leukaemic transformation); • WSU-DLCL2 (B-NHL; diffuse lymphoma with large B cells); • RL (B-NHL; undifferentiated diffuse); • OCl-Ly10 (B-NHL); • DoHH-2 (B-NHL); • RPMI-8226 (MM—multiple myelomas); • JVM-2 (B-CLL—B-cell chronic lymphocytic leukaemia); and • JVM-3 (B-CLL).
(§2) In order to measure the viability, the tumour cells are incubated in 96-well or 384-well format for 48, 72 or 96 hours, preferably 72 hours, with a compound of the invention at dilutions of a factor 3, with, in general, nine doses in total, the highest dose being equal to 10 μM or 30 μM. The cell viability is evaluated by adding CellTiter-Blue® (Promega, Madison, Wis., United States) for 4 hours and endpoint readings are taken using a SpectraMax Genmini EM plate reader (Molecular Devices, Sunnyvale, Calif., United States). The CellTiter-Blue® cell viability assay measures the ability of the cells in culture to reduce resazurin to resorufin, the intensity of the fluorescence signal being directly proportional to the number of live cells. The EC50 represents the concentration of compound that leads to a 50% reduction of the viability/proliferative expansion of the cells.

Pim-3 = biological target: T1, Pim-3 (Homo sapiens, UniProt Q86V86); test: TR-FRET assay of Pim kinase activity (phosphorylation of Bad Ser112), Pim-3; type: biochemical; details: ATP 40 μM, read-out: IC50 Pim3
T1 construct: full-length human recombinant His6-labelled Pim-1, Pim-2 or Pim-3 protein; His6; made in house
Method: (§3) In order to determine the inhibition of Pim kinase activity, the compounds of the invention are tested in accordance with a routinely-used in-vitro TR-FRET assay (“Time Resolved-Fluorescence Resonance Energy Transfer”). […] For the assay, the following reagents are used:
(§4) Pim kinase—full-length human recombinant His6-labelled Pim-1, Pim-2 or Pim-3 protein (prepared according to J. Mol. Biol. (2005) 348, 183-193); Bad—full-length human recombinant His6-labelled Bad protein (prepared according to J. Mol. Biol. (2005) 348, 183-193); α-His6-APC—mouse monoclonal antibody conjugated to allophycocyanine SureLight™ directed against the His6 label (Perkin-Elmer, No. AD0059H, Waltham, Mass., United States); α-P˜Bad-Eu—mouse monoclonal antibody (Cell Signaling Technology #9296B, Danvers, Mass., United States) directed against phosphoBad (Ser112) (7E11) labelled on request by Perkin-Elmer with the reagent LANCE™ Eu-W1024.
(§5) The assay is based on the LANCE™ technology from Perkin-Elmer: the Eu-labelled antibody binds to phospho-Ser112 and generates a TR-FRET signal by interaction with the […] antibody directed against His6, bound to the His6 label of Bad. The TR-FRET signal is detected using a SpectraMax M5 plate reader (Molecular Devices) with the following settings: λex=340 nm, λem1=615 nm, λem2=665 nm. The ratio of the fluorescence signal at 665 nm to the fluorescence signal at 615 nm is used as the signal reading for the IC50 (calculations based on the 4-parameter logistic model). The assay is performed in 384-well format; the liquid manipulations are performed using a Beckmann 3000 liquid manipulation station. The test compounds are tested at 10 concentration points in duplicate; the highest concentration of compound is typically equal to 30 μM. The ATP concentration is equal to 40 μM.

Pim-2 = biological target: T2, Pim-2 (Homo sapiens, UniProt Q9P1W9); test: TR-FRET assay of Pim kinase activity (phosphorylation of Bad Ser112), Pim-2; type: biochemical; details: ATP 40 μM, read-out: IC50 Pim2
T2 construct: full-length human recombinant His6-labelled Pim-1, Pim-2 or Pim-3 protein; His6; made in house
Method: as §3, §4, §5

Pim-1 = biological target: T3, Pim-1 (Homo sapiens, UniProt P11309); test: TR-FRET assay of Pim kinase activity (phosphorylation of Bad Ser112), Pim-1; type: biochemical; details: ATP 40 μM, read-out: IC50 Pim1
T3 construct: full-length human recombinant His6-labelled Pim-1, Pim-2 or Pim-3 protein; His6; made in house
Method: as §3, §4, §5

MV4-11 = test: Cell viability assay (CellTiter-Blue), MV4-11; type: cell-based; details: Homo sapiens, read-out: EC50 MV4-11 μM (acute myeloid leukemia), MV4-11 cells, read-out: EC50 MV4-11 μM (myeloma)
Method: as §1, §2

PLK1 = PLK1 (Homo sapiens, UniProt P53350); test: Biochemical results, IC50 PLK1
CDK1 = CDK1 (Homo sapiens, UniProt P06493); test: Biochemical results, IC50 CDK1
Chain of CDK1 (P06493 whole entry, species assumed): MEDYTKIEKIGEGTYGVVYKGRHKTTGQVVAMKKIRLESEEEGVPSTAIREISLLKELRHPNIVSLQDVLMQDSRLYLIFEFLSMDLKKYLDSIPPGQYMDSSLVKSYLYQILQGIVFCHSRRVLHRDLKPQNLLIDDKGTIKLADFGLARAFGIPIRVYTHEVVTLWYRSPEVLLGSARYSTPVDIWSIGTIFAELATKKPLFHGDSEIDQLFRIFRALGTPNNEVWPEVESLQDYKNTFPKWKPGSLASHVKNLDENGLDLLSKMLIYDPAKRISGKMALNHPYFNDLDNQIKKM
Chain of CDK1 (P14635 whole entry partner, species assumed): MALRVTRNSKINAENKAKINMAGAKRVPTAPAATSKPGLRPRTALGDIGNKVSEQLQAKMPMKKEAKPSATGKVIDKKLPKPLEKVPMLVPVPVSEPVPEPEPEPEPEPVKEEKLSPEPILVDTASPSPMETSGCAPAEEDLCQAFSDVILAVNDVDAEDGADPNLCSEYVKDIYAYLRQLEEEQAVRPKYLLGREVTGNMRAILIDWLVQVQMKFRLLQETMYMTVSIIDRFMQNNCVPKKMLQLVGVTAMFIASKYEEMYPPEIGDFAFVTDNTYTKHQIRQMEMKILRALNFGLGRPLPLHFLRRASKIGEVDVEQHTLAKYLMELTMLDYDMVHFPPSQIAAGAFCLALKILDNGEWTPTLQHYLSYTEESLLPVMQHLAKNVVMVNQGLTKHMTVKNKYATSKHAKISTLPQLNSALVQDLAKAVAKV

Chain of PLK1 (P53350 whole entry, species assumed): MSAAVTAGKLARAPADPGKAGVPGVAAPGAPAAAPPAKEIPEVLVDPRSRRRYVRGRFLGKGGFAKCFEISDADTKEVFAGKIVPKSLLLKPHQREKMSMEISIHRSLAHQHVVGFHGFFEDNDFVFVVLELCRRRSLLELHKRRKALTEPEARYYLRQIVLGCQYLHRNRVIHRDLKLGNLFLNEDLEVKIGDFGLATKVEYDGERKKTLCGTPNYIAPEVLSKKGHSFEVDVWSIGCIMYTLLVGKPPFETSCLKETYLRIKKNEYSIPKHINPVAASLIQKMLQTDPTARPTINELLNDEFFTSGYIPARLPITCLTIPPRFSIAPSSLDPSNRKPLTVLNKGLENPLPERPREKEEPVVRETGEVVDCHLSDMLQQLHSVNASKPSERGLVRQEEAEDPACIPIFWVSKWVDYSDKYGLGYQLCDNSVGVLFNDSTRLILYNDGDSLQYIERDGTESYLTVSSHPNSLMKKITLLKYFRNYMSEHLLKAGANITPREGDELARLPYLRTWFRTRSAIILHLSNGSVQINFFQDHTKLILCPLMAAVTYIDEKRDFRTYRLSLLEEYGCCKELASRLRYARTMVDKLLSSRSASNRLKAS
T2 sequence (Q9P1W9 whole entry): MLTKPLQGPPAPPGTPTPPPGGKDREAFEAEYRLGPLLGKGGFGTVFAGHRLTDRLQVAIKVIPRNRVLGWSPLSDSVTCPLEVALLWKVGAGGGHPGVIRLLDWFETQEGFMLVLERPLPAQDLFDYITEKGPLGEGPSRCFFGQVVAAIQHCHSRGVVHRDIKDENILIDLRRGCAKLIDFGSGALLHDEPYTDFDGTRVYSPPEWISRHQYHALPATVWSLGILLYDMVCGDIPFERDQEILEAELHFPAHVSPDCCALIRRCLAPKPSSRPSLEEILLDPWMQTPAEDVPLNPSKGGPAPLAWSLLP
T3 sequence (P11309 whole entry): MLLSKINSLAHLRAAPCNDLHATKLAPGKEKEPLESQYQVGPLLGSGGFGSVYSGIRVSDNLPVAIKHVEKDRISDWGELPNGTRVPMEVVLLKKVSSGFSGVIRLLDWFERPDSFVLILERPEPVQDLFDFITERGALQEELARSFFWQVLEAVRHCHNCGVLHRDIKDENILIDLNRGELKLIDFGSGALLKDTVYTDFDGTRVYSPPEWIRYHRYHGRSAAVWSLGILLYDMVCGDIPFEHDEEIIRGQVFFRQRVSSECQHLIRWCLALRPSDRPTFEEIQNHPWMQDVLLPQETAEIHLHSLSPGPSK

Row | SMILES | EC50 (EOL-1) [nM] | IC50 (Pim-3) [nM] | IC50 (Pim-2) [nM] | IC50 (Pim-1) [nM] | EC50 (MV4-11) [nM] | IC50 (PLK1) [nM] | IC50 (CDK1) [nM]
1 | CN1CC(NC(=O)c2ccc(-c3c(F)cnc4[nH]c5cnc(-c6cccnc6)cc5c34)cc2)C1 [Example 56, 4-[3-fluoro-6-(pyridin-3-yl)-9H-pyrrolo[2,3-b:5,4-c′]dipyridin-4-yl]-N-(1-methylazetidin-3-yl)benzamide] | < 100 | < 100 | < 100 | < 100 | < 100 | 100 to 1000 | 100 to 1000
2 | O=C(NCc1ccnc(O)c1)c1ccc(-c2c(F)cnc3[nH]c4cnc(-c5cccnc5)cc4c23)cc1 [Example 82, 4-[3-fluoro-6-(pyridin-3-yl)-9H-pyrrolo[2,3-b:5,4-c′]dipyridin-4-yl]-N-[(2-hydroxypyridin-4-yl)methyl]benzamide] | – | < 100 | 100 to 1000 | < 100 | – | 100 to 1000 | 100 to 1000
3 | N[C@H]1CCCC[C@@H]1NC(=O)c1ccc(-c2c(F)cnc3[nH]c4cnc(-c5cccnc5)cc4c23)cc1 [Example 84, N-[(1S,2S)-2-aminocyclohexyl]-4-[3-fluoro-6-(pyridin-3-yl)-9H-pyrrolo[2,3-b:5,4-c′]dipyridin-4-yl]benzamide] | – | < 100 | < 100 | < 100 | – | 100 to 1000 | 100 to 1000
4 | CCNCCNC(=O)c1ccc(-c2c(F)cnc3[nH]c4cnc(-c5cccnc5)cc4c23)cc1 [Example 87, N-[2-(ethylamino)ethyl]-4-[3-fluoro-6-(pyridin-3-yl)-9H-pyrrolo[2,3-b:5,4-c′]dipyridin-4-yl]benzamide] | 100 to 1000 | < 100 | < 100 | < 100 | 100 to 1000 | 100 to 1000 | 100 to 1000
5 | CNCCNC(=O)c1ccc(-c2c(F)cnc3[nH]c4cnc(-c5cccnc5)cc4c23)cc1 [Example 88, 4-[3-fluoro-6-(pyridin-3-yl)-9H-pyrrolo[2,3-b:5,4-c′]dipyridin-4-yl]-N-[2-(methylamino)ethyl]benzamide] | – | < 100 | < 100 | < 100 | – | 100 to 1000 | 100 to 1000
6 | NC1(CNC(=O)c2ccc(-c3c(F)cnc4[nH]c5cnc(-c6cccnc6)cc5c34)cc2)CC1 [Example 89, N-[(1-aminocyclopropyl)methyl]-4-[3-fluoro-6-(pyridin-3-yl)-9H-pyrrolo[2,3-b:5,4-c′]dipyridin-4-yl]benzamide] | 100 to 1000 | < 100 | < 100 | < 100 | 100 to 1000 | 100 to 1000 | 100 to 1000
7 | NCC(F)(F)CNC(=O)c1ccc(-c2c(F)cnc3[nH]c4cnc(-c5cccnc5)cc4c23)cc1 [Example 90, N-(3-amino-2,2-difluoropropyl)-4-[3-fluoro-6-(pyridin-3-yl)-9H-pyrrolo[2,3-b:5,4-c′]dipyridin-4-yl]benzamide] | 100 to 1000 | < 100 | 100 to 1000 | < 100 | 100 to 1000 | 100 to 1000 | 100 to 1000
8 | CC(N)(CNC(=O)c1ccc(-c2c(F)cnc3[nH]c4cnc(-c5cccnc5)cc4c23)cc1)C(F)(F)F (stereo not drawn) [Example 91, N-(2-amino-3,3,3-trifluoro-2-methylpropyl)-4-[3-fluoro-6-(pyridin-3-yl)-9H-pyrrolo[2,3-b:5,4-c′]dipyridin-4-yl]benzamide] | – | 100 to 1000 | 1000 to 5000 | 100 to 1000 | – | 100 to 1000 | 100 to 1000
9 | CN1CCN(NC(=O)c2ccc(-c3c(F)cnc4[nH]c5cnc(-c6cnn(C)c6)cc5c34)cc2)CC1 [Example 99, 4-[3-fluoro-6-(1-methyl-1H-pyrazol-4-yl)-9H-pyrrolo[2,3-b:5,4-c′]dipyridin-4-yl]-N-(4-methylpiperazin-1-yl)benzamide] | – | < 100 | 100 to 1000 | < 100 | – | > 5000 | 1000 to 5000
10 | Cn1cc(-c2cc3c(cn2)[nH]c2ncc(F)c(-c4ccc(C(N)=O)cc4)c23)cn1 [Example 104, 4-[3-fluoro-6-(1-methyl-1H-pyrazol-4-yl)-9H-pyrrolo[2,3-b:5,4-c′]dipyridin-4-yl]benzamide] | – | < 100 | 100 to 1000 | < 100 | – | 100 to 1000 | 100 to 1000
11 | CN1CCN(NC(=O)c2ccc(-c3c(F)cnc4[nH]c5cnc(-c6cnn(C)c6Cl)cc5c34)cc2)CC1 [Example 106, 4-[6-(5-chloro-1-methyl-1H-pyrazol-4-yl)-3-fluoro-9H-pyrrolo[2,3-b:5,4-c′]dipyridin-4-yl]-N-(4-methylpiperazin-1-yl)benzamide] | < 100 | < 100 | < 100 | < 100 | 100 to 1000 | 1000 to 5000 | 100 to 1000
12 | CN1CCC(NC(=O)c2ccc(-c3c(F)cnc4[nH]c5cnc(-c6cnn(C)c6Cl)cc5c34)cc2)CC1 [Example 107, 4-[6-(5-chloro-1-methyl-1H-pyrazol-4-yl)-3-fluoro-9H-pyrrolo[2,3-b:5,4-c′]dipyridin-4-yl]-N-(1-methylpiperidin-4-yl)benzamide] | 100 to 1000 | < 100 | < 100 | < 100 | 100 to 1000 | > 5000 | 1000 to 5000
